This passage reports IC50 results from BindingDB's records for patent US12264155 (Repare Therapeutics, 2025).

pIC50: −log10 of the molar value.

In general, pIC50 refers to −log10 of the IC50, conventionally taken in molar units.

Chain of Serine/threonine-protein kinase ATR (Q13535 whole entry): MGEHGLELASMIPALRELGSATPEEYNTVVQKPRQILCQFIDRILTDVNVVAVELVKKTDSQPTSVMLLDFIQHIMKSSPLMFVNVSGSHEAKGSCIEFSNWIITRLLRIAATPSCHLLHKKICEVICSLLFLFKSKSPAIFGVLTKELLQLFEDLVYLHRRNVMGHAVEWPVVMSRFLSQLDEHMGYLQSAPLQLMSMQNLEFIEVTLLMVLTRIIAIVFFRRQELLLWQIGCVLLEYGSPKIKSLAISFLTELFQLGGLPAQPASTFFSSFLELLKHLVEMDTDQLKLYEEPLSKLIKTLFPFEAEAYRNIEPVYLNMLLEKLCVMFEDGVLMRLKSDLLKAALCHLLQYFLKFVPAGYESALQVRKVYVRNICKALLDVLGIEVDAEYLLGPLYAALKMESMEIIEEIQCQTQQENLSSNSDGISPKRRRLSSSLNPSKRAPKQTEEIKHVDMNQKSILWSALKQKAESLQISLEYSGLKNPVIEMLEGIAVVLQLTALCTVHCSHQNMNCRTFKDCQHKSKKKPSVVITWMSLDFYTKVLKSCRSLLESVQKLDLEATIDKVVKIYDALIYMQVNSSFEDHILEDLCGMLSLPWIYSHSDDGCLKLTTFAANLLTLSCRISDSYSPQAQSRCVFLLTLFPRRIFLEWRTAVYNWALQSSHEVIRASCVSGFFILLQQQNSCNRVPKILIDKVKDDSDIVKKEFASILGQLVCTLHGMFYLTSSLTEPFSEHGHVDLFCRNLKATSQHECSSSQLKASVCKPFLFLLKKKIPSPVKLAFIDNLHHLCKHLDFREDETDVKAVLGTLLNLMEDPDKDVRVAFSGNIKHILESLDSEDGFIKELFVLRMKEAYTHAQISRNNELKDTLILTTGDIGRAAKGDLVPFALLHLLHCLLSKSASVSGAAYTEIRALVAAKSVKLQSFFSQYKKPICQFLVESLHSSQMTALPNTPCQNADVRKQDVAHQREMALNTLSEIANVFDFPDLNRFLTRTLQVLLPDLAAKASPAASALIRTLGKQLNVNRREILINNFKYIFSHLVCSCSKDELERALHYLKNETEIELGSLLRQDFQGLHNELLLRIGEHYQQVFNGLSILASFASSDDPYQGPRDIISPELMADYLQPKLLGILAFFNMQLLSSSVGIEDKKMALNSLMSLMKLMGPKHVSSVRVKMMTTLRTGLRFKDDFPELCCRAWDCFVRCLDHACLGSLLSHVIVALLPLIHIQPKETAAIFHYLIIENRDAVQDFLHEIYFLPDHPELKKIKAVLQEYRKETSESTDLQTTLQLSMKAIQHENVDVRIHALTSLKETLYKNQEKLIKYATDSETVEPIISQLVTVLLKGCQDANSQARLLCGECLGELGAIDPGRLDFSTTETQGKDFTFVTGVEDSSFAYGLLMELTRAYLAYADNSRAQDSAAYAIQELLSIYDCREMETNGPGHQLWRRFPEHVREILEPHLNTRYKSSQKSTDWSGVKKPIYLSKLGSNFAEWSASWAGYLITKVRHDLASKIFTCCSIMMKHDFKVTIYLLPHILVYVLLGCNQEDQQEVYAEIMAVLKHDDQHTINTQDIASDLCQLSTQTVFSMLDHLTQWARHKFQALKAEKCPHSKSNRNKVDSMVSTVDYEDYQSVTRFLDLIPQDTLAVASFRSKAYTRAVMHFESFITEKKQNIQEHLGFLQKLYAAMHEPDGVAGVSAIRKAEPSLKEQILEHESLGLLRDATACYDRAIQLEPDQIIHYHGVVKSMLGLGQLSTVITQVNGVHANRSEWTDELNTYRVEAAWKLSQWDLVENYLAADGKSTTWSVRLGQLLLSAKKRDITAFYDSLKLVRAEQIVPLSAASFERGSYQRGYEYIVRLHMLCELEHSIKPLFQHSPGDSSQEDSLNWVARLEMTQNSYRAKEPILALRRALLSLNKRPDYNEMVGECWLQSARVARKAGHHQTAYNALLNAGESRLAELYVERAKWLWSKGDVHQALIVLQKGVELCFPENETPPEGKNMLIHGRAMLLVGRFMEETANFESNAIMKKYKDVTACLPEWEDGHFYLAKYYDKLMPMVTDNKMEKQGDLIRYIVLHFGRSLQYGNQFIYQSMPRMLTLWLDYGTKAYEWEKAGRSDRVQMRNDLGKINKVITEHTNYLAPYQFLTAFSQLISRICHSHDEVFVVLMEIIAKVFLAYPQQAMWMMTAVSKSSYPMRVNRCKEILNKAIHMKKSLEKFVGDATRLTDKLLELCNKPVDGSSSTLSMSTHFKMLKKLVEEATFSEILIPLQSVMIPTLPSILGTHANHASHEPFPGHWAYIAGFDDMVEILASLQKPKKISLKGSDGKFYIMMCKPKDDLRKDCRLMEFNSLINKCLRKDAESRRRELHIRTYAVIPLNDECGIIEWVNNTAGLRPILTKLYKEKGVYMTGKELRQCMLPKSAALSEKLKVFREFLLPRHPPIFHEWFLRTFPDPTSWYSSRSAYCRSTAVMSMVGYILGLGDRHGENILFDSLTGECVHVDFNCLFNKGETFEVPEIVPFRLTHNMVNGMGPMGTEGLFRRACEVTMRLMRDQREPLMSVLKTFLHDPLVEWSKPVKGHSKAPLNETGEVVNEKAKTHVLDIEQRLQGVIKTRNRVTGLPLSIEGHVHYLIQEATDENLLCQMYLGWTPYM

The target in the assay is Serine/threonine-protein kinase ATR (Homo sapiens, UniProt Q13535). As to the kind of experiment: ATR/ATRIP Enzymatic Assay. An excerpt:
Detection of ATR kinase activity utilized the AlphaScreen system to measure the phosphorylation of the substrate protein p53.
In the case of `C[C@@H]1COCCN1c1cc(C2(O)CCC3(CCC3)CC2)c2cnn(-c3cc[nH]n3)c2n1` [US12264155, Compound 58], the pIC50 is 8.22.

`C[C@@H]1COCCN1c1cc(OCC(F)(F)F)c2cnn(-c3cc[nH]n3)c2n1` [US12264155, Compound 55] had a pIC50 of 7.89.

On to `C[C@@H]1COCCN1c1cc(C(C)(C)C#N)c2c(Br)nn(-c3cc[nH]n3)c2n1` [US12264155, Compound 70], for which the pIC50 was greater than 8.30.

`C[C@@H]1COCCN1c1cc(N2CCOC2=O)c2ccn(-c3cc[nH]n3)c2n1` [US12264155, Compound 26] showed a pIC50 of 6.07.
